A short description of this series: recombinant barcode read abundance after kanamycin selection (control-corrected) (log10(CPM+1)); higher = more efficient recombination; sequences stand for … in AGTGCAGAGAAAATCGGCCAGTTTTCTCTGCCTGCAGTCCGCATGCCGT…AGATTTATGCAGCGGACTGCCTTTCTCCCAAAGTGATAAACCGGACAGTATCATGGACCGGTTTTCCCGGTAATCCGTATTTGCAAGGTTGGTTTCACT; site = the 11-nt target. The method, then: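 Pooled E. coli target-specificity screen for the IS621 bridge recombinase. Each library plasmid pairs an 11-nt target (CT core) with a bridge RNA whose target-binding loop (9-nt LTG + 4-nt RTG) is reprogrammed; the rest of the 177-nt WT IS621 bridge RNA scaffold is fixed. The plasmid is co-electroporated with a WT donor plasmid; recombinase is induced with 0.1 mM IPTG and recombinants are selected on kanamycin. Recombinant barcodes are sequenced, converted to CPM, averaged over two biological replicates and corrected by the unselected control CPM. Molecule = full bridge RNA written as DNA: LTG = specificity nt 1-9, RTG = reverse complement of specificity nt 8-11, in the WT scaffold.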
On to “AAGCGTTCTTGGGTTCTAACCTGTTGCCT (site AAGCGTTCTAG)”, for which the “recombinant barcode read abundance (log10)” value is 1.54.

On to “AAGCTGCCTTGGGTTCTAACCTGTTGCCT (site AAGCTGCCTAG)”, for which the “recombinant barcode read abundance (log10)” value came to 1.49.

Regarding “AAGCTGCCTTGGGTTCTAACCTGTTGCCT (site GAGCTGCCTAA)”, the “recombinant barcode read abundance (log10)” value came to 0.049.

In the case of “AAGGAACCTTGGGTTCTAACCTGTTGCCT (site AAGGAACCTAG)”, the “recombinant barcode read abundance (log10)” value was found to be 2.59.

Take “AAGGAACCTTGGGTTCTAACCTGTTGCCT (site CAGGAACCTAG)”: the “recombinant barcode read abundance (log10)” value came out at 1.23.

“AAGGAACCTTGGGTTCTAACCTGTTGCCT (site GAGGAACCTAG)”: the “recombinant barcode read abundance (log10)” value is 0.951.

With “AAGGAACCTTGGGTTCTAACCTGTTGCCT (site TAGGAACCTAG)”, the “recombinant barcode read abundance (log10)” value worked out at 2.11.

For “AAGGAGACTTGGGTTCTAACCTGTTGCCT (site AAAGGGACTAG)”, the “recombinant barcode read abundance (log10)” value was found to be 0.116.

For the sequence “AAGGAGACTTGGGTTCTAACCTGTTGCCT (site AAGGAGACTAG)”, the “recombinant barcode read abundance (log10)” value turned out to be 2.12.

For the sequence “AAGGCTTCTTGGGTTCTAACCTGTTGCCT (site AAGGCTACTAG)”, the “recombinant barcode read abundance (log10)” value worked out at 0.171.

In the case of “AAGGCTTCTTGGGTTCTAACCTGTTGCCT (site AAGGCTTCTAG)”, the “recombinant barcode read abundance (log10)” value amounted to 1.4.

Regarding “AAGGGGTCTTGGGTTCTAACCTGTTGCCT (site AAGGGGTCTAG)”, the “recombinant barcode read abundance (log10)” value is 2.93.

As to “AAGGGGTCTTGGGTTCTAACCTGTTGCCT (site TACGGGTCTAG)”, the “recombinant barcode read abundance (log10)” value is 0.112.

Turning to “AAGGTCCCTTGGGTTCTAACCTGTTGCCA (site AAGGTCCCTTG)”, the “recombinant barcode read abundance (log10)” value came out at 1.85.

As to “AAGGTCCCTTGGGTTCTAACCTGTTGCCA (site AAGGTTCCTTA)”, the “recombinant barcode read abundance (log10)” value was 0.0911.

Consider “AAGTCGTCTTGGGTTCTAACCTGTTGCCT (site AAGTCGTCTAG)”, for which the “recombinant barcode read abundance (log10)” value was found to be 0.832.

Turning to “AAGTCGTCTTGGGTTCTAACCTGTTGCCT (site ACGTCGTCTAG)”, the “recombinant barcode read abundance (log10)” value stood at 0.0906.

Regarding “AAGTCGTCTTGGGTTCTAACCTGTTGCCT (site AGGTCGTCTAG)”, the “recombinant barcode read abundance (log10)” value was 0.126.

“AAGTCGTCTTGGGTTCTAACCTGTTGCCT (site ATGTCGTCTAG)”: the “recombinant barcode read abundance (log10)” value came out at 0.0249.

Take “AAGTCGTCTTGGGTTCTAACCTGTTGCTA (site AAGTCGTCTTA)”: the “recombinant barcode read abundance (log10)” value is 0.857.

Consider “AAGTCGTCTTGGGTTCTAACCTGTTGCTA (site GCAATTGCTAG)”, for which the “recombinant barcode read abundance (log10)” value is 0.132.

Take “AAGTGCTCTTGGGTTCTAACCTGTTGCCG (site AAGTGCTCTCG)”: the “recombinant barcode read abundance (log10)” value is 1.89.

In the case of “AAGTGCTCTTGGGTTCTAACCTGTTGCCG (site AGGTGCCCTCG)”, the “recombinant barcode read abundance (log10)” value is 0.0892.

Take “AAGTTTCCTTGGGTTCTAACCTGTTGCAT (site AAGTGTCCTAT)”: the “recombinant barcode read abundance (log10)” value was found to be 0.118.

Turning to “AAGTTTCCTTGGGTTCTAACCTGTTGCAT (site AAGTTTCCTAT)”, the “recombinant barcode read abundance (log10)” value amounted to 0.22.

Regarding “AATAACTCTTGGGTTCTAACCTGTTGCCT (site AATAACTCTAG)”, the “recombinant barcode read abundance (log10)” value was found to be 0.863.

In the case of “AATAACTCTTGGGTTCTAACCTGTTGCCT (site CATAACTCTAG)”, the “recombinant barcode read abundance (log10)” value turned out to be 0.0701.

With “AATAACTCTTGGGTTCTAACCTGTTGCCT (site GATAACTCTAG)”, the “recombinant barcode read abundance (log10)” value amounted to 0.111.

Turning to “AATAACTCTTGGGTTCTAACCTGTTGCCT (site TATAACTCTAG)”, the “recombinant barcode read abundance (log10)” value worked out at 0.139.

As to “AATAAGTCTTGGGTTCTAACCTGTTGCCT (site AATAAGTCTAG)”, the “recombinant barcode read abundance (log10)” value turned out to be 0.483.

As to “AATAAGTCTTGGGTTCTAACCTGTTGCCT (site ACTAAGTCTAG)”, the “recombinant barcode read abundance (log10)” value turned out to be 0.0757.

Regarding “AATAAGTCTTGGGTTCTAACCTGTTGCCT (site AGTAAGTCTAG)”, the “recombinant barcode read abundance (log10)” value worked out at 0.566.

For the sequence “AATAAGTCTTGGGTTCTAACCTGTTGCCT (site ATTAAGTCTAG)”, the “recombinant barcode read abundance (log10)” value amounted to 0.122.

For the sequence “AATAGAGCTTGGGTTCTAACCTGTTGCAG (site AAGTGAGCTCT)”, the “recombinant barcode read abundance (log10)” value turned out to be 0.0557.

Consider “AATAGAGCTTGGGTTCTAACCTGTTGCAG (site AATAGAGCTCT)”, for which the “recombinant barcode read abundance (log10)” value worked out at 2.23.

“AATAGGACTTGGGTTCTAACCTGTTGCTA (site AATAAGACTTG)”: the “recombinant barcode read abundance (log10)” value was 0.0927.

For “AATAGGACTTGGGTTCTAACCTGTTGCTA (site AATAGGACTTA)”, the “recombinant barcode read abundance (log10)” value is 0.896.

Turning to “AATAGGGCTTGGGTTCTAACCTGTTGCGG (site AATAGGGCTCC)”, the “recombinant barcode read abundance (log10)” value is 2.21.

Turning to “AATAGGGCTTGGGTTCTAACCTGTTGCGG (site ACTAGGGCTCC)”, the “recombinant barcode read abundance (log10)” value was determined as 0.294.

For the sequence “AATCGGCCTTGGGTTCTAACCTGTTGCGT (site AATAGGCCTAC)”, the “recombinant barcode read abundance (log10)” value amounted to 0.375.

For the sequence “AATCGGCCTTGGGTTCTAACCTGTTGCGT (site AATCGGCCTAC)”, the “recombinant barcode read abundance (log10)” value was 1.85.

In the case of “AATCGGCCTTGGGTTCTAACCTGTTGCGT (site AATGGGCCTAC)”, the “recombinant barcode read abundance (log10)” value was determined as 0.0625.

Turning to “AATCGGCCTTGGGTTCTAACCTGTTGCGT (site AATTGGCCTAC)”, the “recombinant barcode read abundance (log10)” value was determined as 0.175.

Turning to “AATGCTACTTGGGTTCTAACCTGTTGCAT (site AATGCTACTAT)”, the “recombinant barcode read abundance (log10)” value worked out at 0.235.

For the sequence “AATGCTACTTGGGTTCTAACCTGTTGCAT (site TATGCTACTAT)”, the “recombinant barcode read abundance (log10)” value amounted to 0.238.

In the case of “AATGCTCCTTGGGTTCTAACCTGTTGCGT (site AATGCTCCTAA)”, the “recombinant barcode read abundance (log10)” value stood at 0.116.

“AATGCTCCTTGGGTTCTAACCTGTTGCGT (site AATGCTCCTAC)”: the “recombinant barcode read abundance (log10)” value is 2.03.

On to “AATGCTCCTTGGGTTCTAACCTGTTGCGT (site AATGCTCCTAG)”, for which the “recombinant barcode read abundance (log10)” value was 0.419.

Take “AATGCTCCTTGGGTTCTAACCTGTTGCGT (site AATGCTCCTAT)”: the “recombinant barcode read abundance (log10)” value was 0.177.

“AATGCTCCTTGGGTTCTAACCTGTTGCTT (site AATGCTCCTAA)”: the “recombinant barcode read abundance (log10)” value was 0.49.

For “AATGCTCCTTGGGTTCTAACCTGTTGCTT (site AATGCTCCTAC)”, the “recombinant barcode read abundance (log10)” value came out at 0.0515.

Consider “AATGCTCCTTGGGTTCTAACCTGTTGCTT (site AATGCTCCTAG)”, for which the “recombinant barcode read abundance (log10)” value came out at 0.103.

Turning to “AATGCTCCTTGGGTTCTAACCTGTTGCTT (site AATGCTCCTAT)”, the “recombinant barcode read abundance (log10)” value was determined as 0.135.

Regarding “AATGCTTCTTGGGTTCTAACCTGTTGCTT (site AATGCTTCTAA)”, the “recombinant barcode read abundance (log10)” value was determined as 0.398.

For “AATGCTTCTTGGGTTCTAACCTGTTGCTT (site GATGCTTCTAA)”, the “recombinant barcode read abundance (log10)” value worked out at 0.143.

On to “AATGGGACTTGGGTTCTAACCTGTTGCGA (site AATGGGACTCA)”, for which the “recombinant barcode read abundance (log10)” value was found to be 0.331.

For “AATGGGACTTGGGTTCTAACCTGTTGCGA (site AATGGGACTTC)”, the “recombinant barcode read abundance (log10)” value was determined as 2.42.

“AATGGGACTTGGGTTCTAACCTGTTGCTG (site AATGGGACTCA)”: the “recombinant barcode read abundance (log10)” value worked out at 2.47.

With “AATGGGACTTGGGTTCTAACCTGTTGCTG (site AATGGGACTTC)”, the “recombinant barcode read abundance (log10)” value is 1.55.

On to “AATGGTCCTTGGGTTCTAACCTGTTGCCA (site AATGGTCCTTG)”, for which the “recombinant barcode read abundance (log10)” value was determined as 0.588.

Consider “AATGGTCCTTGGGTTCTAACCTGTTGCCA (site CTAATATCTAT)”, for which the “recombinant barcode read abundance (log10)” value was found to be 0.337.

“AATTAGTCTTGGGTTCTAACCTGTTGCGG (site AATTAGTCTCC)”: the “recombinant barcode read abundance (log10)” value amounted to 2.2.

Take “AATTAGTCTTGGGTTCTAACCTGTTGCGG (site AGTTAGTCTCC)”: the “recombinant barcode read abundance (log10)” value was determined as 0.312.

In the case of “AATTGAGCTTGGGTTCTAACCTGTTGCCT (site AATTAAGCTAG)”, the “recombinant barcode read abundance (log10)” value is 0.0773.

Take “AATTGAGCTTGGGTTCTAACCTGTTGCCT (site AATTCAGCTAG)”: the “recombinant barcode read abundance (log10)” value is 0.0625.

Turning to “AATTGAGCTTGGGTTCTAACCTGTTGCCT (site AATTGAGCTAG)”, the “recombinant barcode read abundance (log10)” value worked out at 0.887.

Consider “AATTGAGCTTGGGTTCTAACCTGTTGCCT (site AATTTAGCTAG)”, for which the “recombinant barcode read abundance (log10)” value stood at 0.242.

For “AATTGCCCTTGGGTTCTAACCTGTTGCCT (site AATTGCCCTAG)”, the “recombinant barcode read abundance (log10)” value is 0.369.

Regarding “AATTGCCCTTGGGTTCTAACCTGTTGCCT (site ACTTGCCCTAG)”, the “recombinant barcode read abundance (log10)” value stood at 0.00964.

On to “AATTGCCCTTGGGTTCTAACCTGTTGCCT (site AGTTGCCCTAG)”, for which the “recombinant barcode read abundance (log10)” value worked out at 0.0557.

For the sequence “AATTGCCCTTGGGTTCTAACCTGTTGCCT (site ATTTGCCCTAG)”, the “recombinant barcode read abundance (log10)” value turned out to be 0.166.

As to “AATTGGACTTGGGTTCTAACCTGTTGCTT (site AATTGGACTAA)”, the “recombinant barcode read abundance (log10)” value came to 0.355.

In the case of “AATTGGACTTGGGTTCTAACCTGTTGCTT (site CATTGGACTAA)”, the “recombinant barcode read abundance (log10)” value is 0.0957.

For the origin of these results see the supplement of paper PMC11208160.
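Further: IS621 recombinase and bridge RNA in Escherichia coli cells.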
